From paper PMC3598812, “Evaluation of Anti-Hyperalgesic and Analgesic Effects of Two Benzodiazepines in Human Experimental Pain: A Randomized Placebo-Controlled Study” (PLoS ONE, 2013)

How the values were obtained:
healthy male volunteers [1] = assay: Area of dynamic mechanical hyperalgesia after intradermal capsaicin (cotton wool stroking); type: in vivo, human; conditions: single oral dose (clobazam 20 mg, clonazepam 1 mg, tolterodine 1 mg), mean (SD)
Description: The area of dynamic mechanical hyperalgesia was determined by gently stroking a hand-held cotton wool tip on a 1 cm strip of the skin, at a rate of approximately 1 cm/s. Subjects were asked to report when the sensation changed from a non-painful to a painful sensation. The borders of dynamic hyperalgesia were delineated similarly to the determination of static hyperalgesia.

healthy male volunteers [2] = assay: Pain rating (VAS) after graded von Frey hair stimulation in the capsaicin hyperalgesic area; type: in vivo, human; conditions: VAS 0-10, single oral dose (clobazam 20 mg, clonazepam 1 mg, tolterodine 1 mg), mean (SD)
Description: Additionally, mechanical pain sensitivity was assessed using a set of seven weighted pinprick stimuli to obtain a stimulus-response function. The test was applied 1 cm inside the outer border of the pinprick hyperalgesic area, using a set of 7 graded von Frey hair mechanical stimulators with fixed stimulus intensities (custom-made at Aalborg University, Denmark). The flat contact area of the stimulators has a 0.2 mm diameter, and the 7 stimulators exert forces of 8, 16, 32, 64, 128, 256 and 512 mN. The order of stimulation was defined randomly by computer. The stimulators were applied at a rate of 2 s on/2 s off. Subjects were asked to give a pain rating for each stimulus on a 10 cm VAS. Two assessments for each stimulation were made and the mean of these 2 measurements was used for the data analysis.

healthy male volunteers [3] = assay: Cutaneous single electrical stimulation pain threshold; type: in vivo, human; conditions: mean (SD)
Description: (§1) Electrical stimulation was performed through electrodes placed distal to the lateral malleolus. A 25 ms, train-of-five, 1 ms, square-wave impulse (perceived as one stimulus), was delivered by a computer-controlled constant current stimulator (Digitimer DS7A, Neurospec, Letchworth Garden City, UK). The current intensity was increased from 1 mA in steps of 0.5 mA until a pain sensation was evoked.
(§2) Three assessments were made and the mean of these 3 measurements was used for the data analysis.

healthy male volunteers [4] = assay: Cutaneous repeated (5 stimuli) electrical stimulation, temporal summation threshold; type: in vivo, human; conditions: mean (SD)
From the text: (§3) The stimulus burst used for single stimulus was repeated 5 times at 2 Hz, at constant intensity. The current intensity of the 5 stimuli was increased from 1 mA in steps of 0.5 mA until the subjects felt pain during the last 2–3 of the 5 stimuli (indicating temporal summation).
as §2

healthy male volunteers [5] = assay: Intramuscular single electrical stimulation pain threshold (tibialis anterior); type: in vivo, human; conditions: mean (SD)
Description: as §1
(§4) A needle was placed in the tibialis anterior muscle, 14 cm distal from the caudal end of the patella and 20 mm in depth. The same single and repeated stimulation patterns and the same procedure described for cutaneous stimulation were used.

healthy male volunteers [6] = assay: Intramuscular repeated (5 stimuli) electrical stimulation pain threshold; type: in vivo, human; conditions: for Pain threshold after 5 intramuscular electrical stimuli: mean (SD); for Change in pain threshold after 5 intramuscular electrical stimuli between baseline and 120 minutes: main analysis, pairwise multiple comparison
From the text: as §3, §4

healthy male volunteers [7] = assay: Intramuscular repeated (20 stimuli) electrical stimulation, VAS; type: in vivo, human; parameters: AUC of VAS during 20 intramuscular electrical stimuli: unit not given beside the values; conditions: mean (SD); for Maximal VAS during 20 intramuscular electrical stimuli: VAS 0-10
Description: The stimulus burst used for single stimulus was repeated for a train of 20 pulses at 2 Hz, at an intensity corresponding to the temporal summation threshold. During this 10 s stimulation, pain intensity was continuously rated by the subject with an electronic VAS, and the area under the curve (AUC) was computed. Additionally, the maximal VAS during stimulation was recorded.
as §4

healthy male volunteers [8] = assay: Cuff algometry (tourniquet cuff on the leg, VAS-time AUC); type: in vivo, human; parameters: AUC of VAS during cuff algometry: unit not given beside the values; conditions: mean (SD)
From the text: A tourniquet cuff was applied to the middle of the leg, at the level of the heads of the gastrocnemius and soleus muscle. The cuff was applied at the side contralateral to the side of electrical stimulation in order not to interfere with the positioning of the intramuscular electrodes. During stimulation, the volunteer rated the pain intensity on an electronic VAS scale. The cuff was inflated with compressed air until VAS 6 was reached. The maximum allowed inflating pressure was 200 kPa. The pressure was maintained for 10 min or until the subjects rated the pain as intolerable. The area under the curve VAS-time was computed. For those subjects who felt intolerable pain before 10 min, the time when the cuff was deflated was recorded and VAS 10 was extrapolated until 10 min. Additionally, the maximal VAS during inflation was recorded.

patients / volunteers = conditions: ref Micromedex 2009; cited from earlier work
[9] = baseline before medication, per drug session
[10] = single oral dose (clobazam 20 mg, clonazepam 1 mg, tolterodine 1 mg), 30 min after medication
[11] = single oral dose (clobazam 20 mg, clonazepam 1 mg, tolterodine 1 mg), 60 min after medication
[12] = single oral dose (clobazam 20 mg, clonazepam 1 mg, tolterodine 1 mg), 90 min after medication
[13] = single oral dose (clobazam 20 mg, clonazepam 1 mg, tolterodine 1 mg), 120 min after medication
[14] = single oral dose (clobazam 20 mg, clonazepam 1 mg, tolterodine 1 mg), after flumazenil 0.2 mg iv

Cc1ccc(O)c([C@H](CCN(C(C)C)C(C)C)c2ccccc2)c1 [Tolterodine]
Area of dynamic hyperalgesia (healthy male volunteers [1]; 30 min after medication): 20.3 (11.6) cm^2 | Area of dynamic hyperalgesia (healthy male volunteers [1]; 60 min after medication): 23.3 (09.0) cm^2 | Area of dynamic hyperalgesia (healthy male volunteers [1]; 90 min after medication): 23.1 (11.3) cm^2 | Area of dynamic hyperalgesia (healthy male volunteers [1]; 120 min after medication): 23.3 (09.1) cm^2 | Area of dynamic hyperalgesia (healthy male volunteers [1]; after flumazenil 0.2 mg iv): 24.7 (14.6) cm^2 | VAS after von Frey hair 8 mN (healthy male volunteers [2]; 30 min after medication): 1.3 (1.5) | VAS after von Frey hair 16 mN (healthy male volunteers [2]; 30 min after medication): 1.7 (1.8) | VAS after von Frey hair 32 mN (healthy male volunteers [2]; 30 min after medication): 2.5 (1.9) | VAS after von Frey hair 64 mN (healthy male volunteers [2]; 30 min after medication): 3.2 (2.3) | VAS after von Frey hair 128 mN (healthy male volunteers [2]; 30 min after medication): 3.4 (2.2) | VAS after von Frey hair 256 mN (healthy male volunteers [2]; 30 min after medication): 4.2 (2.1) | VAS after von Frey hair 512 mN (healthy male volunteers [2]; 30 min after medication): 4.9 (2.0) | VAS after von Frey hair 8 mN (healthy male volunteers [2]; 60 min after medication): 1.2 (1.3) | VAS after von Frey hair 16 mN (healthy male volunteers [2]; 60 min after medication): 1.9 (1.9) | VAS after von Frey hair 32 mN (healthy male volunteers [2]; 60 min after medication): 2.7 (2.2) | VAS after von Frey hair 64 mN (healthy male volunteers [2]; 60 min after medication): 2.9 (1.8) | VAS after von Frey hair 128 mN (healthy male volunteers [2]; 60 min after medication): 3.5 (2.2) | VAS after von Frey hair 256 mN (healthy male volunteers [2]; 60 min after medication): 4.2 (2.1) | VAS after von Frey hair 512 mN (healthy male volunteers [2]; 60 min after medication): 5.2 (2.0) | VAS after von Frey hair 8 mN (healthy male volunteers [2]; 90 min after medication): 1.2 (1.4) | VAS after von Frey hair 16 mN (healthy male volunteers [2]; 90 min after medication): 1.6 (1.9) | VAS after von Frey hair 32 mN (healthy male volunteers [2]; 90 min after medication): 2.2 (1.4) | VAS after von Frey hair 64 mN (healthy male volunteers [2]; 90 min after medication): 2.8 (2.0) | VAS after von Frey hair 128 mN (healthy male volunteers [2]; 90 min after medication): 3.1 (2.0) | VAS after von Frey hair 256 mN (healthy male volunteers [2]; 90 min after medication): 4.2 (2.0) | VAS after von Frey hair 512 mN (healthy male volunteers [2]; 90 min after medication): 4.9 (2.1) | VAS after von Frey hair 8 mN (healthy male volunteers [2]; 120 min after medication): 1.0 (0.9) | VAS after von Frey hair 16 mN (healthy male volunteers [2]; 120 min after medication): 1.4 (1.3) | VAS after von Frey hair 32 mN (healthy male volunteers [2]; 120 min after medication): 1.9 (1.3) | VAS after von Frey hair 64 mN (healthy male volunteers [2]; 120 min after medication): 2.3 (1.5) | VAS after von Frey hair 128 mN (healthy male volunteers [2]; 120 min after medication): 2.9 (2.0) | VAS after von Frey hair 256 mN (healthy male volunteers [2]; 120 min after medication): 4.1 (2.5) | VAS after von Frey hair 512 mN (healthy male volunteers [2]; 120 min after medication): 4.8 (2.2) | VAS after von Frey hair 8 mN (healthy male volunteers [2]; after flumazenil 0.2 mg iv): 1.1 (1.2) | VAS after von Frey hair 16 mN (healthy male volunteers [2]; after flumazenil 0.2 mg iv): 1.1 (0.9) | VAS after von Frey hair 32 mN (healthy male volunteers [2]; after flumazenil 0.2 mg iv): 2.1 (1.6) | VAS after von Frey hair 64 mN (healthy male volunteers [2]; after flumazenil 0.2 mg iv): 2.6 (1.7) | VAS after von Frey hair 128 mN (healthy male volunteers [2]; after flumazenil 0.2 mg iv): 2.6 (1.5) | VAS after von Frey hair 256 mN (healthy male volunteers [2]; after flumazenil 0.2 mg iv): 4.1(1.7) | VAS after von Frey hair 512 mN (healthy male volunteers [2]; after flumazenil 0.2 mg iv): 5.0 (2.2) | Pain threshold after single cutaneous electrical stimulation (healthy male volunteers [3]; [9]): 9.9 (2.2) mA | Pain threshold after single cutaneous electrical stimulation (healthy male volunteers [3]; [10]): 10.3 (2.6) mA | Pain threshold after single cutaneous electrical stimulation (healthy male volunteers [3]; [11]): 10.7 (2.3) mA | Pain threshold after single cutaneous electrical stimulation (healthy male volunteers [3]; [12]): 10.9 (2.7) mA | Pain threshold after single cutaneous electrical stimulation (healthy male volunteers [3]; [13]): 11.5 (2.3) mA | Pain threshold after single cutaneous electrical stimulation (healthy male volunteers [3]; [14]): 12.1 (2.6) mA | Pain threshold after 5 cutaneous electrical stimuli (healthy male volunteers [4]; [9]): 8.8 (2.3) mA | Pain threshold after 5 cutaneous electrical stimuli (healthy male volunteers [4]; [10]): 9.0 (2.4) mA | Pain threshold after 5 cutaneous electrical stimuli (healthy male volunteers [4]; [11]): 9.2 (2.2) mA | Pain threshold after 5 cutaneous electrical stimuli (healthy male volunteers [4]; [12]): 9.5 (2.2) mA | Pain threshold after 5 cutaneous electrical stimuli (healthy male volunteers [4]; [13]): 9.7 (2.1) mA | Pain threshold after 5 cutaneous electrical stimuli (healthy male volunteers [4]; [14]): 10.0 (2.3) mA | Pain threshold after single intramuscular electrical stimulation (healthy male volunteers [5]; [9]): 1.8 (1.2) mA | Pain threshold after single intramuscular electrical stimulation (healthy male volunteers [5]; [13]): 2.2 (1.2) mA | Pain threshold after single intramuscular electrical stimulation (healthy male volunteers [5]; [14]): 2.7 (1.7) mA | Pain threshold after 5 intramuscular electrical stimuli (healthy male volunteers [6]; [9]): 1.6 (1.2) mA | Change in pain threshold after 5 intramuscular electrical stimuli between baseline and 120 minutes (healthy male volunteers [6]): not | Change in pain threshold after 5 intramuscular electrical stimuli between baseline and 120 minutes (healthy male volunteers [6]; listed as tolterodine): no statistically significant change | Change in pain detection threshold after 5 intramuscular electrical stimuli from baseline to peak value (healthy male volunteers [6]; peak value analysis, pairwise comparisons within each drug): not | Pain threshold after 5 intramuscular electrical stimuli (healthy male volunteers [6]; [13]): 1.9 (1.2) mA | Pain threshold after 5 intramuscular electrical stimuli (healthy male volunteers [6]; [14]): 2.2 (1.5) mA | Maximal VAS during 20 intramuscular electrical stimuli (healthy male volunteers [7]; [9]): 4.5 (1.6) | Maximal VAS during 20 intramuscular electrical stimuli (healthy male volunteers [7]; [13]): 3.8 (2.4) | Maximal VAS during 20 intramuscular electrical stimuli (healthy male volunteers [7]; [14]): 4.1 (2.5) | AUC of VAS during 20 intramuscular electrical stimuli (healthy male volunteers [7]; [9]): 323 (127) | AUC of VAS during 20 intramuscular electrical stimuli (healthy male volunteers [7]; [13]): 286 (198) | AUC of VAS during 20 intramuscular electrical stimuli (healthy male volunteers [7]; [14]): 316 (206) | AUC of VAS during cuff algometry (healthy male volunteers [8]; [9]): 3348 (743) | AUC of VAS during cuff algometry (healthy male volunteers [8]; [13]): 2686 (1155) | AUC of VAS during cuff algometry (healthy male volunteers [8]; [14]): 2918 (1021) | Dizziness, expected side effect frequency (patients / volunteers): 2% | Somnolence, expected side effect frequency (patients / volunteers): 3%
